How the values were obtained:
[1] = molecular target: T1, Ephrin type-A receptor 2 (Homo sapiens, UniProt P29317); assay: Inhibition of ephrin-A1-Fc binding to EphA2-Fc receptor (unknown origin) after 1 hr by ELISA
[2] = molecular target: T1, Ephrin type-A receptor 2; assay: Antagonist activity at EphA2 in human PC3 cells assessed as inhibition of ephrin-A1-Fc-stimulated EphA2 phosphorylation pretreated for 20 mins by sandwich ELISA; format: cell-based, PC-3
[3] = molecular target: Ephrin type-A receptor 5 (Homo sapiens, UniProt P54756); assay: Displacement of ephrin-A1-Fc from EphA5 receptor Fc ectodomain (unknown origin) after 1 hr by ELISA
[4] = molecular target: Ephrin type-A receptor 7 (Homo sapiens, UniProt Q15375); assay: Displacement of ephrin-A1-Fc from EphA7 receptor Fc ectodomain (unknown origin) after 1 hr by ELISA
[5] = molecular target: T2, Ephrin type-B receptor 6 (Homo sapiens, UniProt O15197); assay: Displacement of ephrin-B1-Fc from EphB6 receptor Fc ectodomain (unknown origin) after 1 hr by ELISA
T2 sequence (O15197 whole entry): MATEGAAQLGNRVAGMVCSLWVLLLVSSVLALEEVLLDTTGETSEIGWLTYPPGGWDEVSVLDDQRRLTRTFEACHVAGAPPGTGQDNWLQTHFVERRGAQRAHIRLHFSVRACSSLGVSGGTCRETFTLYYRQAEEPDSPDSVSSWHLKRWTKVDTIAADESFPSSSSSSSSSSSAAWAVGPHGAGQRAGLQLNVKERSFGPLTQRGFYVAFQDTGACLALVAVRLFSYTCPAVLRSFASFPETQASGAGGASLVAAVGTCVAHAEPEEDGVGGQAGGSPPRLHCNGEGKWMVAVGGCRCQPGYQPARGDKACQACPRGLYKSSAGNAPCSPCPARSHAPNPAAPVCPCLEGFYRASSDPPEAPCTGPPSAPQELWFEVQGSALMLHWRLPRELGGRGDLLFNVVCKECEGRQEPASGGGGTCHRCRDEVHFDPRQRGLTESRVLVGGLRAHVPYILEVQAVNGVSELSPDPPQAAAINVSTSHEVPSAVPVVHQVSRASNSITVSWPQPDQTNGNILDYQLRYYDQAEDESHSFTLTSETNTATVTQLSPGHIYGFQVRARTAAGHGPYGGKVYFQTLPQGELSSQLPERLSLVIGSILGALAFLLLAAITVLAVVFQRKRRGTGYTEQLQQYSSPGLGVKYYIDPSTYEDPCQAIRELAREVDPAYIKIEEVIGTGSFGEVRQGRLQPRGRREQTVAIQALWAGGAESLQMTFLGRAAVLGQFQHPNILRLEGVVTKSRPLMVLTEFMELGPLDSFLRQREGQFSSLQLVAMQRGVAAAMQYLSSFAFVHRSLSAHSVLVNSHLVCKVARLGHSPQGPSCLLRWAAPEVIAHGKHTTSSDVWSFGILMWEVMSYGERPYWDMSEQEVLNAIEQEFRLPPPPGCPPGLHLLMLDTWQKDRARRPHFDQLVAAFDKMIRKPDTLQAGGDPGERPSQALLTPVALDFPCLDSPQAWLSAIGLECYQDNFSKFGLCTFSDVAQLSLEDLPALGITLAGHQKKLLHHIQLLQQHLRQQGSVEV

[6] = molecular target: T3, Ephrin type-A receptor 8 (Homo sapiens, UniProt P29322); assay: Displacement of ephrin-A1-Fc from EphA8 receptor Fc ectodomain (unknown origin) after 1 hr by ELISA
T3 sequence (P29322 whole entry): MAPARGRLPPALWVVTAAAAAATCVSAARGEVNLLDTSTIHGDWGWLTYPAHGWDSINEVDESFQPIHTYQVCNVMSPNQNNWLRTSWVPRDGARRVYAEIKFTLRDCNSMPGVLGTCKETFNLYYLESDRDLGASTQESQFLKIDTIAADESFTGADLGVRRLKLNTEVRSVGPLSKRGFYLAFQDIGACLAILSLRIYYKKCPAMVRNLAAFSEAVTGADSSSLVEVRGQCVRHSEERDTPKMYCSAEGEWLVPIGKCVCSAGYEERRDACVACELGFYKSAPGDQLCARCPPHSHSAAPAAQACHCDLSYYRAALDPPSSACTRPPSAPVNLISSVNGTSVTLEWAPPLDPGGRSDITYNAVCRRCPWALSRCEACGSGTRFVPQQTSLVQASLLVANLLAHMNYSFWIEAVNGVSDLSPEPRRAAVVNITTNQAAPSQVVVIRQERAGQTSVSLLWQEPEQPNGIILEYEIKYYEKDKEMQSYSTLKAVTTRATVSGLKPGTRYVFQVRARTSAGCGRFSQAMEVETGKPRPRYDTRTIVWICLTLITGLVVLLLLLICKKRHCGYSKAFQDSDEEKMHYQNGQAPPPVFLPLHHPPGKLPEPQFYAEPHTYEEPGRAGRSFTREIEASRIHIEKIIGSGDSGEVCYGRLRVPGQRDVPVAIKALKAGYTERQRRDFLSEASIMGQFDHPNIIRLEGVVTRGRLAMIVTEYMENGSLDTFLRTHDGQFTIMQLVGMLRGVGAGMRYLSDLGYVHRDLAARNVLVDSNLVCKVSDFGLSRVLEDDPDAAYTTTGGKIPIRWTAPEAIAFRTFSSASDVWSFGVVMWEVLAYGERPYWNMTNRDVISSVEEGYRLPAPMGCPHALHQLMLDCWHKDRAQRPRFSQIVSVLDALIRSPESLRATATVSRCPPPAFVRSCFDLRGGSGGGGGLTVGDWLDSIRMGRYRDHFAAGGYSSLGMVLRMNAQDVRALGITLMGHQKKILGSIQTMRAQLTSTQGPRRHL

[7] = molecular target: T4, Ephrin type-B receptor 4 (Homo sapiens, UniProt P54760); assay: Displacement of ephrin-B1-Fc from EphB4 receptor Fc ectodomain (unknown origin) after 1 hr by ELISA
T4 sequence (P54760 whole entry): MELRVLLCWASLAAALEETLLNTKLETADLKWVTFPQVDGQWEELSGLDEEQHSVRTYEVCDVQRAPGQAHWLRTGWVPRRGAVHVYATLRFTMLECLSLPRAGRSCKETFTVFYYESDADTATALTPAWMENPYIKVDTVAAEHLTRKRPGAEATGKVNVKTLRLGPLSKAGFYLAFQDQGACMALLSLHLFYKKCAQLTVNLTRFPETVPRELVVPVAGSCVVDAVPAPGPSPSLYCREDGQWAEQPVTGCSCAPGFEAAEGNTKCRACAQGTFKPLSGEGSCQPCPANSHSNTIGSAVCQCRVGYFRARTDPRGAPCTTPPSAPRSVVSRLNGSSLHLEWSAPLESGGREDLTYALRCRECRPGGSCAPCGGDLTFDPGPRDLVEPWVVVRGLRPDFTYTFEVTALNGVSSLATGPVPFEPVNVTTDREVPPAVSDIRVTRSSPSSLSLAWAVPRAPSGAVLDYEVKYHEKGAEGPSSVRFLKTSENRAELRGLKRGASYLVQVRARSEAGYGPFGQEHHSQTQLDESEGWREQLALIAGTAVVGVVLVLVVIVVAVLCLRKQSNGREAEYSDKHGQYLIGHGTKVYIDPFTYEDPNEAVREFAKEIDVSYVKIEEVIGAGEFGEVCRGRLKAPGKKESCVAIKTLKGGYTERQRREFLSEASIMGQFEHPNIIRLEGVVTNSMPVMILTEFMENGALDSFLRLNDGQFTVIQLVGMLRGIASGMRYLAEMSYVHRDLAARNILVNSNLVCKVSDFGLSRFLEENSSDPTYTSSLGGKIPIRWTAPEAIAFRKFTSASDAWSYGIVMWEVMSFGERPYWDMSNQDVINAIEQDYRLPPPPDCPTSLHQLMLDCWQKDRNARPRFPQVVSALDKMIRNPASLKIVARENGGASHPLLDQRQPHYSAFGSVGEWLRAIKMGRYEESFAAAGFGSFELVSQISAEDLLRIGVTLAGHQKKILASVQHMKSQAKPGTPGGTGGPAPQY

[8] = molecular target: T5, Ephrin type-B receptor 1 (Homo sapiens, UniProt P54762); assay: Displacement of ephrin-B1-Fc from EphB1 receptor Fc ectodomain (unknown origin) after 1 hr by ELISA
T5 sequence (P54762 whole entry): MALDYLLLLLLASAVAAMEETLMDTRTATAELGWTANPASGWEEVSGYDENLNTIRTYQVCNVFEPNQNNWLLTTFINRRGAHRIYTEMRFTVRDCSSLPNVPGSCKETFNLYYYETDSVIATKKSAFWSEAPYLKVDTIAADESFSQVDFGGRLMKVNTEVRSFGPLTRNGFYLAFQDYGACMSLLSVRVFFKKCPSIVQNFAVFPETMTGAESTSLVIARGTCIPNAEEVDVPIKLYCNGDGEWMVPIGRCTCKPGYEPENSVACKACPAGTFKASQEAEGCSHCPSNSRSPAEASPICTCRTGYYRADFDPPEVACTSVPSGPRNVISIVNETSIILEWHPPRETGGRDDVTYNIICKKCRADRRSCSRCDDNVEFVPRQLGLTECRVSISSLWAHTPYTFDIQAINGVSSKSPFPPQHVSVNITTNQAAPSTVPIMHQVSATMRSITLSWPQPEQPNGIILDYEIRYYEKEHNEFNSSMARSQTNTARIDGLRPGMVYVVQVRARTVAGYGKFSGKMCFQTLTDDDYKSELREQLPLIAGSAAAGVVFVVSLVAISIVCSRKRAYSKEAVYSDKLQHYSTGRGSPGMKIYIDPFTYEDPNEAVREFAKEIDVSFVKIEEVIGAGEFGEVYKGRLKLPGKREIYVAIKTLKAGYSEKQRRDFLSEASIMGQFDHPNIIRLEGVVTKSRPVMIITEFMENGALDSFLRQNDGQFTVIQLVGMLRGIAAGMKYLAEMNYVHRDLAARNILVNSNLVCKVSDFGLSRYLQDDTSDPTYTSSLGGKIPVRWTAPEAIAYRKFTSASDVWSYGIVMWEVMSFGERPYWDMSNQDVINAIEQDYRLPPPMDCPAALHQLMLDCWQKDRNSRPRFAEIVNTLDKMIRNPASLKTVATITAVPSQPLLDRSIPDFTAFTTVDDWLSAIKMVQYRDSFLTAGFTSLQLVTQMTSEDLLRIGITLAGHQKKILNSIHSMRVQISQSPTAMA

[9] = tested on: PC-3; assay: Cytotoxicity against human PC3 cells assessed as LDH release at 25 to 100 uM after 2 hrs by ELISA; format: cell-based; conditions: pc-3, 2 h
[10] = molecular target: Ephrin type-A receptor 4 (Homo sapiens, UniProt P54764); assay: Displacement of ephrin-A1-Fc from EphA4 receptor Fc ectodomain (unknown origin) after 1 hr by ELISA
[11] = molecular target: T6, Ephrin type-A receptor 6 (Homo sapiens, UniProt Q9UF33); assay: Displacement of ephrin-A1-Fc from EphA6 receptor Fc ectodomain (unknown origin) after 1 hr by ELISA
T6 sequence (Q9UF33 whole entry): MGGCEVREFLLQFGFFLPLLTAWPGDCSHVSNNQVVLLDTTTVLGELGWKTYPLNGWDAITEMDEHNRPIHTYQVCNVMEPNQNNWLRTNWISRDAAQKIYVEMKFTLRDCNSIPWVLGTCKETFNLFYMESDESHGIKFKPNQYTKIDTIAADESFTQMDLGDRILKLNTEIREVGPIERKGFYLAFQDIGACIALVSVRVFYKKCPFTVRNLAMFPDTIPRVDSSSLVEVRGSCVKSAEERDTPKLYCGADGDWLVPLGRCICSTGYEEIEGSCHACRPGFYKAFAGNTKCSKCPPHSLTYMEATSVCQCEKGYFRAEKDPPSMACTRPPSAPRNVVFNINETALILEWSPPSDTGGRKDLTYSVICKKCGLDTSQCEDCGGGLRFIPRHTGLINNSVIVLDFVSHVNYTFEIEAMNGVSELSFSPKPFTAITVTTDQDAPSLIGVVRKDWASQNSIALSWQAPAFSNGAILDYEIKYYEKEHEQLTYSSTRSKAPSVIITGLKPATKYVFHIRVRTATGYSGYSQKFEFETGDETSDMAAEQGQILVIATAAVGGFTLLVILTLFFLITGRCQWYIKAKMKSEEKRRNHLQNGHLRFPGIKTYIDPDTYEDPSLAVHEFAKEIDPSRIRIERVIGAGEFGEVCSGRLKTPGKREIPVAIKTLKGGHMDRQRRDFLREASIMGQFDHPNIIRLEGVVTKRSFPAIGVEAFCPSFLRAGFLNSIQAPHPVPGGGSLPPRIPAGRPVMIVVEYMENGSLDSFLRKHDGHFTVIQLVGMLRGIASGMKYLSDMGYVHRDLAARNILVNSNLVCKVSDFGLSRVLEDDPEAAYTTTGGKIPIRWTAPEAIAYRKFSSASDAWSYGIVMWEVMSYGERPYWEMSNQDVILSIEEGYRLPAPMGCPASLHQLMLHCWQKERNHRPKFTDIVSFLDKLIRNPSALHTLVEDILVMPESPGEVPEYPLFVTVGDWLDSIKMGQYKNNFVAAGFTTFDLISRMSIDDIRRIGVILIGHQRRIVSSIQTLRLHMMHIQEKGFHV

T1 sequence (P29317 whole entry): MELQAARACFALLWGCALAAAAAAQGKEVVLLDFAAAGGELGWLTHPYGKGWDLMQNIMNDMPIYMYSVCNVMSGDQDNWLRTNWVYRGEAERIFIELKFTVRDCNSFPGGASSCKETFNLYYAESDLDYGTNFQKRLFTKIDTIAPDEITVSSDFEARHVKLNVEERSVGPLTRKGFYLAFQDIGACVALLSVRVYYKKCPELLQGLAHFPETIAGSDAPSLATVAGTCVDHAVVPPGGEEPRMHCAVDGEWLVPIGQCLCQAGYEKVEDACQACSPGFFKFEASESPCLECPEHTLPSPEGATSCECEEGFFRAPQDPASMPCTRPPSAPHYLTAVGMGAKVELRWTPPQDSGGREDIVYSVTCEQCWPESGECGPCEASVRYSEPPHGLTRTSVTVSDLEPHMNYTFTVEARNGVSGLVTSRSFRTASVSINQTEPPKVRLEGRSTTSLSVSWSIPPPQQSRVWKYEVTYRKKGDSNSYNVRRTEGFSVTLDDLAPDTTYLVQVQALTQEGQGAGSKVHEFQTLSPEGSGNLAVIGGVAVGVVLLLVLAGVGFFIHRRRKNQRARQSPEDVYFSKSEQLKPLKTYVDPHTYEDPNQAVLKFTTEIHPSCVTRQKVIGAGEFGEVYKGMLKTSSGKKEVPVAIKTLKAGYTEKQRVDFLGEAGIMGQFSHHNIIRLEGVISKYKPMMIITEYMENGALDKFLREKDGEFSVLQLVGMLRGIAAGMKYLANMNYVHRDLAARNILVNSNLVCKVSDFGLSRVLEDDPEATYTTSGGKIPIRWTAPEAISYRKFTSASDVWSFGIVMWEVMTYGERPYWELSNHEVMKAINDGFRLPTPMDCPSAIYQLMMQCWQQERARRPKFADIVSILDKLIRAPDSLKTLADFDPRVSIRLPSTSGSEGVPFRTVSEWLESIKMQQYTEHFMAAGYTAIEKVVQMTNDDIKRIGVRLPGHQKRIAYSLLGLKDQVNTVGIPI
Sequence of Ephrin type-A receptor 5 (P54756 whole entry, the tested form may be a part): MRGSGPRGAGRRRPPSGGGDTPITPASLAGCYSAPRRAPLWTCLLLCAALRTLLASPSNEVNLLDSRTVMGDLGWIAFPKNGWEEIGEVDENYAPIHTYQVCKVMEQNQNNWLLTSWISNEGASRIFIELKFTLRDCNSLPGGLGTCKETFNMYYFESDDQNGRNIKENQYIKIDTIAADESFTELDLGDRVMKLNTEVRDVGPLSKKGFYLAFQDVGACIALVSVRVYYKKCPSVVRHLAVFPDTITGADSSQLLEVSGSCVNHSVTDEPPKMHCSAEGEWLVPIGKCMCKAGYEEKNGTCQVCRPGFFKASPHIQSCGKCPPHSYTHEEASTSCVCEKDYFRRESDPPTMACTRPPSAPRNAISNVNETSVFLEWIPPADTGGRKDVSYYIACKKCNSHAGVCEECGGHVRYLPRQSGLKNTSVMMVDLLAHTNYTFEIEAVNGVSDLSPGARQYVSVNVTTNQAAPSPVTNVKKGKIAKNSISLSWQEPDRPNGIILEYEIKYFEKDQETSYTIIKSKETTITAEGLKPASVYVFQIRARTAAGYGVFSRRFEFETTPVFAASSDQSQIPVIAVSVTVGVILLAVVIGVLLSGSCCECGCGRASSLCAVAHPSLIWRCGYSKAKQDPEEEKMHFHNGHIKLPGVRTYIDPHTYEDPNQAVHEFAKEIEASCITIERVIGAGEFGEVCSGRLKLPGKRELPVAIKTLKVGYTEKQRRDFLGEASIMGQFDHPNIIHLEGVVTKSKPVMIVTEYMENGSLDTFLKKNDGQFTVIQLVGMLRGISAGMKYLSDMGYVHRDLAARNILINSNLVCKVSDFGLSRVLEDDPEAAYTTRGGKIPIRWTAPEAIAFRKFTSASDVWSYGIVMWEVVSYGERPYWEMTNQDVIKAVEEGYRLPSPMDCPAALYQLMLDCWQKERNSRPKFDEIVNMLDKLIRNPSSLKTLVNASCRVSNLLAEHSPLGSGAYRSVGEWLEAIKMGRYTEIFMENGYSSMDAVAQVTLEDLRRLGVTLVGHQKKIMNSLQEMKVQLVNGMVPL
Sequence of Ephrin type-A receptor 7 (Q15375 whole entry, the tested form may be a part): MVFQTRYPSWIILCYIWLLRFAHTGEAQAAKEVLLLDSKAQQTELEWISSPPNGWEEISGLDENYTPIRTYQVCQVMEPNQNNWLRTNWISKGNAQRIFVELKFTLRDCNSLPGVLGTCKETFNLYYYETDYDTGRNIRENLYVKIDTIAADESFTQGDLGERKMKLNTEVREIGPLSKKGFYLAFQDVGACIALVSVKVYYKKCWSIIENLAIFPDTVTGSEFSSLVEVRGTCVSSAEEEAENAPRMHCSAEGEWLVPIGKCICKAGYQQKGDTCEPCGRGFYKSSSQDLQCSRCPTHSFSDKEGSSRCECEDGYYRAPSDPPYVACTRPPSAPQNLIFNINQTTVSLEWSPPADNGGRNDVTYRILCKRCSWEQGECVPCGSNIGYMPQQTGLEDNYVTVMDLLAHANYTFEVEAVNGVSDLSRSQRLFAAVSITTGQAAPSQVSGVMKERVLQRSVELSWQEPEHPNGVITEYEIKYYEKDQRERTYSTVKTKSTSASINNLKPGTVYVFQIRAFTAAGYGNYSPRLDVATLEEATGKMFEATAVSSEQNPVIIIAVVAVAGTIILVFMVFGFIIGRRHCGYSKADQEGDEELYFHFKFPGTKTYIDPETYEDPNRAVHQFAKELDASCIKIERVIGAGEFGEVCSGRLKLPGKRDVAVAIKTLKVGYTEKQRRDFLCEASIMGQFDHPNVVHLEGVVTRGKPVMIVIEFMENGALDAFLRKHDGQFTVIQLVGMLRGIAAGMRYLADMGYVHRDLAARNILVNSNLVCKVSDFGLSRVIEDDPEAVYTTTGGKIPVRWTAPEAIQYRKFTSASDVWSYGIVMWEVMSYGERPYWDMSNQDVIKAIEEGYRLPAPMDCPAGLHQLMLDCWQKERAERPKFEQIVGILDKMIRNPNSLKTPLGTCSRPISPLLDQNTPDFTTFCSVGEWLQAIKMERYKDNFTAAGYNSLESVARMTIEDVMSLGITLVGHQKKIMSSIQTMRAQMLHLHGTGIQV
Sequence of Ephrin type-A receptor 4 (P54764 whole entry, the tested form may be a part): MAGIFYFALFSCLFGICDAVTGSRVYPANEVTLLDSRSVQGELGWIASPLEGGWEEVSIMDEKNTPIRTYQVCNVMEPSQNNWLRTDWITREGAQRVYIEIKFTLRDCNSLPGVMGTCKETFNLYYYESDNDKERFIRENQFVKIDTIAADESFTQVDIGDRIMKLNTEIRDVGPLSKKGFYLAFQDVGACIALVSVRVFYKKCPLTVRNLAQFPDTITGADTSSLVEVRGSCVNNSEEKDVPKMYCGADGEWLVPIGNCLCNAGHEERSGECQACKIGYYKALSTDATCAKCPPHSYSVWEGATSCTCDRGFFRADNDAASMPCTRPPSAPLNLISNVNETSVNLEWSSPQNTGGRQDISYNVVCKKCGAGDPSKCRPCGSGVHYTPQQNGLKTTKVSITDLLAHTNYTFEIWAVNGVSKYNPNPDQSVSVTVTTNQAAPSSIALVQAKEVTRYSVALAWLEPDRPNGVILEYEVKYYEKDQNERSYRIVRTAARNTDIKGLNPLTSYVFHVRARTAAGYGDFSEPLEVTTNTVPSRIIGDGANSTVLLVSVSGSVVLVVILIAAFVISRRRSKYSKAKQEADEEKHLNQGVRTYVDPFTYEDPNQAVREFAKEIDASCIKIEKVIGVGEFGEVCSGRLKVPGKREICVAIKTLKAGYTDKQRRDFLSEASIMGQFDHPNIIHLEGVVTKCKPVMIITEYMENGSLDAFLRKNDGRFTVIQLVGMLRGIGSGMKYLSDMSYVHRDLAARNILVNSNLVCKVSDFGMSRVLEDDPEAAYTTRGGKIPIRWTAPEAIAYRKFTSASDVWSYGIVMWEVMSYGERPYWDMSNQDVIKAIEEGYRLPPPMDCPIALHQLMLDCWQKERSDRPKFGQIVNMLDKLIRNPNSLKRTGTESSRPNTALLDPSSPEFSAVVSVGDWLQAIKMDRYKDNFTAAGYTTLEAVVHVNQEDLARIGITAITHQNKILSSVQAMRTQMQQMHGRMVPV

CC(=O)CNC(=O)CC[C@@H](C)[C@H]1CC[C@H]2[C@@H]3CC[C@@H]4C[C@H](O)CC[C@]4(C)[C@H]3CC[C@]12C
IC50 [1]: > 316 µM

C[C@H](CCC(=O)NCC(=O)O)[C@H]1CC[C@H]2[C@@H]3CC[C@@H]4C[C@H](O)CC[C@]4(C)[C@H]3CC[C@]12C [LITHOGLYCOCHOLATE]
IC50 [1]: 49 µM | IC50 [2]: 138 µM

C[C@H](CCC(=O)N[C@@H](CC(N)=O)C(=O)O)[C@H]1CC[C@H]2[C@@H]3CC[C@@H]4C[C@H](O)CC[C@]4(C)[C@H]3CC[C@]12C
IC50 [1]: > 316 µM

C[C@H](CCC(=O)N[C@H](CC(=O)O)C(=O)O)[C@H]1CC[C@H]2[C@@H]3CC[C@@H]4C[C@H](O)CC[C@]4(C)[C@H]3CC[C@]12C
IC50 [1]: > 316 µM

C[C@H](CCC(=O)N[C@@H](Cc1c[nH]c2ccccc12)C(=O)O)[C@H]1CC[C@H]2[C@@H]3CC[C@@H]4C[C@H](O)CC[C@]4(C)[C@H]3CC[C@]12C
IC50 [3]: 2.4 µM | IC50 [4]: 2.1 µM | IC50 [5]: 5.8 µM | IC50 [6]: 1.5 µM | IC50 [7]: 4.4 µM | IC50 [8]: 3.8 µM | Activity [9]: Non-toxic | IC50 [10]: 2.7 µM | IC50 [11]: 1.5 µM

C[C@H](CCC(=O)N[C@H](CC(N)=O)C(=O)O)[C@H]1CC[C@H]2[C@@H]3CC[C@@H]4C[C@H](O)CC[C@]4(C)[C@H]3CC[C@]12C
IC50 [1]: > 316 µM

C[C@H](CCC(=O)N[C@@H](CC(=O)O)C(=O)O)[C@H]1CC[C@H]2[C@@H]3CC[C@@H]4C[C@H](O)CC[C@]4(C)[C@H]3CC[C@]12C
IC50 [1]: > 316 µM

Source: ChEMBL document CHEMBL2321799 (J Med Chem, 2013)
